Where only a bound is given, the exact number is not on record here.

The assay has as its system Spodoptera littoralis. Put plainly: Insecticidal activity against Spodoptera littoralis larvae assessed per gram of fresh weight of diet administered through artificial diet measured after 6 days. The class given is functional, organism-based.
As for `CCCCCCCCCCCC(=O)Oc1c(-c2c(C)cc(OC)c3c(OC)cccc23)ccc2c1[C@@H](C)N(C=O)[C@H](C)C2`, the EC50 is above 750 µg/g.

With `COc1cccc2c(-c3ccc4c(c3OCc3ccc([N+](=O)[O-])cc3)[C@@H](C)N[C@H](C)C4)c(C)cc(OC)c12`, the EC50 is 25.6 µg/g.

For the compound `COc1cccc2c(-c3ccc4c(c3OCc3ccc(Cl)cc3)[C@@H](C)N[C@H](C)C4)c(C)cc(OC)c12`, the EC50 was 16.4 µg/g.

For `COc1cccc2c(-c3ccc4c(c3OCc3ccc(C(F)(F)F)cc3)[C@@H](C)N[C@H](C)C4)c(C)cc(OC)c12`, the EC50 came to 35.1 µg/g.

For the compound `COc1c(-c2c(C)cc(OC)c3c(OC)cccc23)ccc2c1[C@@H](C)N(C=O)[C@H](C)C2`, the EC50 stood at 171 µg/g.

As for `COc1cccc2c(-c3ccc4c(c3OCc3ccc(Br)cc3)[C@@H](C)N[C@H](C)C4)c(C)cc(OC)c12`, the EC50 is 15.6 µg/g.

Compound `COc1cccc2c(-c3ccc4c(c3O)[C@@H](C)N(C)[C@H](C)C4)c(C)cc(OC)c12` gave an EC50 of 377 µg/g.

With `COc1cccc2c(-c3cc(Br)c4c(c3O)[C@@H](C)N[C@H](C)C4)c(C)cc(OC)c12` [5-BROMODIONCOPHYLLINE A], the EC50 was 193 µg/g.

Compound `COc1cccc2c(-c3ccc4c(c3OC(C)=O)[C@@H](C)N(C=O)[C@H](C)C4)c(C)cc(OC)c12` [8-O-ACETYL-N-FORMYLDIONCOPHYLLINE A] gave an EC50 of 361 µg/g.

As for `COc1cccc2c(-c3ccc4c(c3OC(=O)c3ccccc3)[C@@H](C)N(C=O)[C@H](C)C4)c(C)cc(OC)c12` [8-O-BENZOYL-N-FORMYLDIONCOPHYLLINE A], the EC50 came to 132 µg/g.

Consider `COc1cccc2c(-c3ccc4c(c3OCc3ccccc3)[C@@H](C)N(C=O)[C@H](C)C4)c(C)cc(OC)c12` [8-O-BENZYL-N-FORMYLDIONCOPHYLLINE A], for which the EC50 worked out at 67.1 µg/g.

In turn, `COc1cccc2c(-c3ccc4c(c3OCc3ccccc3)[C@@H](C)N[C@H](C)C4)c(C)cc(OC)c12` [8-O-BENZYLDIONCOPHYLLINE A] had an EC50 of 27.1 µg/g.

In turn, `COc1cccc2c(-c3ccc4c(c3OC(C)C)[C@@H](C)N[C@H](C)C4)c(C)cc(OC)c12` [8-O-ISOPROPYLDIONCOPHYLLINE A] yielded an EC50 of 94.1 µg/g.

`CCCCOc1c(-c2c(C)cc(OC)c3c(OC)cccc23)ccc2c1[C@@H](C)N(C=O)[C@H](C)C2` [8-O-N-BUTYL-N-FORMYLDIONCOPHYLLINE A]: the EC50 was 182 µg/g.

The compound `COc1cccc2c(-c3ccc4c(c3O)[C@@H](C)N[C@H](C)C4)c(C)cc(OC)c12` [DIONCOPHYLLINE A] yielded an EC50 of 277 µg/g.

Consider `COc1cccc2c(-c3ccc4c(c3OC(C)=O)[C@@H](C)N(C(C)=O)[C@H](C)C4)c(C)cc(OC)c12` [N-ACETYL-8-O-ACETYLDIONCOPHYLLINE A], for which the EC50 was 331 µg/g.

Regarding `COc1cccc2c(-c3ccc4c(c3O)[C@@H](C)N(C(C)=O)[C@H](C)C4)c(C)cc(OC)c12` [N-ACETYLDIONCOPHYLLINE A], the EC50 is 291 µg/g.

With `COc1cccc2c(-c3ccc4c(c3OC(C)C)[C@@H](C)N(C=O)[C@H](C)C4)c(C)cc(OC)c12` [N-FORMYL-8-O-ISOPROPYLDIONCOPHYLLINE A], the EC50 came to 130 µg/g.

In turn, `COc1cccc2c(-c3ccc4c(c3OC(=O)C(C)(C)C)[C@@H](C)N(C=O)[C@H](C)C4)c(C)cc(OC)c12` [N-FORMYL-8-O-PIVALOYLDIONCOPHYLLINE A] showed an EC50 of 333 µg/g.

Turning to `COc1cccc2c(-c3ccc4c(c3O)[C@@H](C)N(C=O)[C@H](C)C4)c(C)cc(OC)c12` [N-FORMYLDIONCOPHYLLINE A], the EC50 worked out at 454 µg/g.

The values are drawn from ChEMBL document CHEMBL1146405, “Dioncophylline A as a growth-retarding agent against the herbivorous insect Spodoptera littoralis: structure-activity relationships” (J Nat Prod, 1997).
